From patent publication US20240246942A1, “KINASE INHIBITORS FOR THE TREATMENT OF NEURODEGENERATIVE DISEASES” (priority 2020, published 2024)

Key:
Assay in all cases: biochemical
[1] = target: T1, panel of 374 wild-type kinases (Homo sapiens, UniProt Q9H0K1); details: read-out: % Enzyme Activity (relative to DMSO controls), kinase SIK2
T1 construct: purchased Reaction Biology Corporation

[2] = target: T2, panel of 374 wild-type kinases (Homo sapiens, UniProt Q9BYT3); details: kinase STK33, read-out: % Enzyme Activity (relative to DMSO controls)
T2 construct: purchased Reaction Biology Corporation

[3] = target: T3, panel of 374 wild-type kinases (Homo sapiens, UniProt P57078); details: read-out: % Enzyme Activity (relative to DMSO controls), kinase RIPK4
T3 construct: purchased Reaction Biology Corporation
T3 sequence (P57078 1-832): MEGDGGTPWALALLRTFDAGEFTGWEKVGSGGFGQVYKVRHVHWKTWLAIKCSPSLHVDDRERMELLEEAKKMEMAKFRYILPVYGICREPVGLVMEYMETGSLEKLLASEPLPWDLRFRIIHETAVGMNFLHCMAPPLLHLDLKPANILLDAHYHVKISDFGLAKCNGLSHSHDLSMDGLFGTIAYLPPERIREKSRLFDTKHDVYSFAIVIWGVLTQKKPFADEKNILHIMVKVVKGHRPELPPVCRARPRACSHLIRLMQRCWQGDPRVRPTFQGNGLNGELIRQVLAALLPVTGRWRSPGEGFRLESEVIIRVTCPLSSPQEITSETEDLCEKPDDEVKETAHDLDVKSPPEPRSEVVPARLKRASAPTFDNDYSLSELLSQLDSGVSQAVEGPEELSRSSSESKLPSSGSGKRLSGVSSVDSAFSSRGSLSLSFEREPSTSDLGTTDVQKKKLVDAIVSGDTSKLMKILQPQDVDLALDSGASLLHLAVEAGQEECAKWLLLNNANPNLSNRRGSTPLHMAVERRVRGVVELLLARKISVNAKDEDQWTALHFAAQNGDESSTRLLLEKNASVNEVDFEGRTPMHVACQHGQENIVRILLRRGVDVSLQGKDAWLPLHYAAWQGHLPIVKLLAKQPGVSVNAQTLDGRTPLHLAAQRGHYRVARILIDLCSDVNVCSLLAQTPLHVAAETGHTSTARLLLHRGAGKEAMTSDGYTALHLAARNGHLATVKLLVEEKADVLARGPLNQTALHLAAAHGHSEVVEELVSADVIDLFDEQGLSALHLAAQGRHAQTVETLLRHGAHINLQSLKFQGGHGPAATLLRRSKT

[4] = target: T4, panel of 374 wild-type kinases (Homo sapiens, UniProt P42679); details: read-out: % Enzyme Activity (relative to DMSO controls), CTK/MATK
T4 construct: purchased Reaction Biology Corporation
T4 sequence (P42679 1-507): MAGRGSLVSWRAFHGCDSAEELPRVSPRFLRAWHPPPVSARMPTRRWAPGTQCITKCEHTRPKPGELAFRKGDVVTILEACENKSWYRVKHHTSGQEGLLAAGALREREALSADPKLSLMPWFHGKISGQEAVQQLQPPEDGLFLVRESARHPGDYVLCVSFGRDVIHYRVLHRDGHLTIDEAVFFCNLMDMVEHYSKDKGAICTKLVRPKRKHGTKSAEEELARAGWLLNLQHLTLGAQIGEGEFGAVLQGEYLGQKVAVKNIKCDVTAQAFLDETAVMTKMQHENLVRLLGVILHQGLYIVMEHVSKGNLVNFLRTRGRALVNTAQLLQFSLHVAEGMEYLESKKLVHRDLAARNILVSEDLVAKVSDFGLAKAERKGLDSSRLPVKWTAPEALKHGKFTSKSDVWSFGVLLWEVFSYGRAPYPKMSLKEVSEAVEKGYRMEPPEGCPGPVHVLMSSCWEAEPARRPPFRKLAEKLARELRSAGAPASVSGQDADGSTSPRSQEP

[5] = target: T5, panel of 374 wild-type kinases (Homo sapiens, UniProt O15530); details: read-out: % Enzyme Activity (relative to DMSO controls), kinase PDK1/PDPK1
T5 construct: purchased Reaction Biology Corporation
T5 sequence (O15530 1-556): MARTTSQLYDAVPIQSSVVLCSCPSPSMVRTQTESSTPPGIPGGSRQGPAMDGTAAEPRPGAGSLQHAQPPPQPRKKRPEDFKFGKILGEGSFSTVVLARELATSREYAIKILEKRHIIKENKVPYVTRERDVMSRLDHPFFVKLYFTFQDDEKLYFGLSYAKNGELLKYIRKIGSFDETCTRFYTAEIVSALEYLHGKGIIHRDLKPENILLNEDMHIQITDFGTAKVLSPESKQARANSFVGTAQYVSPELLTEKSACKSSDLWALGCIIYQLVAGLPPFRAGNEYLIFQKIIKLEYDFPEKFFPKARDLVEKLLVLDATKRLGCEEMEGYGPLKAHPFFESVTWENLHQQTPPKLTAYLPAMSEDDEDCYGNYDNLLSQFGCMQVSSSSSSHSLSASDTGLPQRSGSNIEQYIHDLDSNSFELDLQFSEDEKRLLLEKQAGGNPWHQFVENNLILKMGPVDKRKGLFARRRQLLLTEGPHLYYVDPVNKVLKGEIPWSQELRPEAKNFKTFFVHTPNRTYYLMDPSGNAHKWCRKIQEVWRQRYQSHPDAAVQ

[6] = target: T6, panel of 374 wild-type kinases (Homo sapiens, UniProt Q5S007); details: read-out: % Enzyme Activity (relative to DMSO controls), LRRK2
T6 construct: purchased Reaction Biology Corporation

[7] = target: T7, panel of 374 wild-type kinases (Homo sapiens, UniProt Q6P2M8); details: read-out: % Enzyme Activity (relative to DMSO controls), CAMK1b
T7 construct: purchased Reaction Biology Corporation
T7 sequence (Q6P2M8 whole entry): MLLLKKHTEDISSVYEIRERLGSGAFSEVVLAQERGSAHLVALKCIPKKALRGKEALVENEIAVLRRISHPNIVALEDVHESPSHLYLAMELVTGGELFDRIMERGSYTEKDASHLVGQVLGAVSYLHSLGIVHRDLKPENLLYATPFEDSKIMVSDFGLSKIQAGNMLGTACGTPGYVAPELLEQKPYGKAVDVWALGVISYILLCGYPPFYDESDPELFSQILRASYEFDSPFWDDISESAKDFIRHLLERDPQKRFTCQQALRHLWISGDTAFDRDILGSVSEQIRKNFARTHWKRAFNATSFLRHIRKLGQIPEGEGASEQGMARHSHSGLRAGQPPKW

T2 sequence (Q9BYT3 whole entry): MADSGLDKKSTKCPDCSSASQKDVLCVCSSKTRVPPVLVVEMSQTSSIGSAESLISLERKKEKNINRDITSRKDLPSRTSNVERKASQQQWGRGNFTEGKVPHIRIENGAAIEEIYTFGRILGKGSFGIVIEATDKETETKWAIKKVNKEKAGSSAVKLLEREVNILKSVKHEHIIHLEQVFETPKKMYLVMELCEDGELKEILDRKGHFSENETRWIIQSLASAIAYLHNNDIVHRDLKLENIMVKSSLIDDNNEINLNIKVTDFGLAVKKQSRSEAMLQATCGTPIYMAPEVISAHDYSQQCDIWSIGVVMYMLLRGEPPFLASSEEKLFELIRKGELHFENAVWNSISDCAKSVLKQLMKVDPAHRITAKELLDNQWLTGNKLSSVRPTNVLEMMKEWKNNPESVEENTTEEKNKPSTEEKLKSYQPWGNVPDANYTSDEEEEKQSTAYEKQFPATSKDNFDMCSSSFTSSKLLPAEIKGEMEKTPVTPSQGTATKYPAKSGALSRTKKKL
T6 sequence (Q5S007 whole entry): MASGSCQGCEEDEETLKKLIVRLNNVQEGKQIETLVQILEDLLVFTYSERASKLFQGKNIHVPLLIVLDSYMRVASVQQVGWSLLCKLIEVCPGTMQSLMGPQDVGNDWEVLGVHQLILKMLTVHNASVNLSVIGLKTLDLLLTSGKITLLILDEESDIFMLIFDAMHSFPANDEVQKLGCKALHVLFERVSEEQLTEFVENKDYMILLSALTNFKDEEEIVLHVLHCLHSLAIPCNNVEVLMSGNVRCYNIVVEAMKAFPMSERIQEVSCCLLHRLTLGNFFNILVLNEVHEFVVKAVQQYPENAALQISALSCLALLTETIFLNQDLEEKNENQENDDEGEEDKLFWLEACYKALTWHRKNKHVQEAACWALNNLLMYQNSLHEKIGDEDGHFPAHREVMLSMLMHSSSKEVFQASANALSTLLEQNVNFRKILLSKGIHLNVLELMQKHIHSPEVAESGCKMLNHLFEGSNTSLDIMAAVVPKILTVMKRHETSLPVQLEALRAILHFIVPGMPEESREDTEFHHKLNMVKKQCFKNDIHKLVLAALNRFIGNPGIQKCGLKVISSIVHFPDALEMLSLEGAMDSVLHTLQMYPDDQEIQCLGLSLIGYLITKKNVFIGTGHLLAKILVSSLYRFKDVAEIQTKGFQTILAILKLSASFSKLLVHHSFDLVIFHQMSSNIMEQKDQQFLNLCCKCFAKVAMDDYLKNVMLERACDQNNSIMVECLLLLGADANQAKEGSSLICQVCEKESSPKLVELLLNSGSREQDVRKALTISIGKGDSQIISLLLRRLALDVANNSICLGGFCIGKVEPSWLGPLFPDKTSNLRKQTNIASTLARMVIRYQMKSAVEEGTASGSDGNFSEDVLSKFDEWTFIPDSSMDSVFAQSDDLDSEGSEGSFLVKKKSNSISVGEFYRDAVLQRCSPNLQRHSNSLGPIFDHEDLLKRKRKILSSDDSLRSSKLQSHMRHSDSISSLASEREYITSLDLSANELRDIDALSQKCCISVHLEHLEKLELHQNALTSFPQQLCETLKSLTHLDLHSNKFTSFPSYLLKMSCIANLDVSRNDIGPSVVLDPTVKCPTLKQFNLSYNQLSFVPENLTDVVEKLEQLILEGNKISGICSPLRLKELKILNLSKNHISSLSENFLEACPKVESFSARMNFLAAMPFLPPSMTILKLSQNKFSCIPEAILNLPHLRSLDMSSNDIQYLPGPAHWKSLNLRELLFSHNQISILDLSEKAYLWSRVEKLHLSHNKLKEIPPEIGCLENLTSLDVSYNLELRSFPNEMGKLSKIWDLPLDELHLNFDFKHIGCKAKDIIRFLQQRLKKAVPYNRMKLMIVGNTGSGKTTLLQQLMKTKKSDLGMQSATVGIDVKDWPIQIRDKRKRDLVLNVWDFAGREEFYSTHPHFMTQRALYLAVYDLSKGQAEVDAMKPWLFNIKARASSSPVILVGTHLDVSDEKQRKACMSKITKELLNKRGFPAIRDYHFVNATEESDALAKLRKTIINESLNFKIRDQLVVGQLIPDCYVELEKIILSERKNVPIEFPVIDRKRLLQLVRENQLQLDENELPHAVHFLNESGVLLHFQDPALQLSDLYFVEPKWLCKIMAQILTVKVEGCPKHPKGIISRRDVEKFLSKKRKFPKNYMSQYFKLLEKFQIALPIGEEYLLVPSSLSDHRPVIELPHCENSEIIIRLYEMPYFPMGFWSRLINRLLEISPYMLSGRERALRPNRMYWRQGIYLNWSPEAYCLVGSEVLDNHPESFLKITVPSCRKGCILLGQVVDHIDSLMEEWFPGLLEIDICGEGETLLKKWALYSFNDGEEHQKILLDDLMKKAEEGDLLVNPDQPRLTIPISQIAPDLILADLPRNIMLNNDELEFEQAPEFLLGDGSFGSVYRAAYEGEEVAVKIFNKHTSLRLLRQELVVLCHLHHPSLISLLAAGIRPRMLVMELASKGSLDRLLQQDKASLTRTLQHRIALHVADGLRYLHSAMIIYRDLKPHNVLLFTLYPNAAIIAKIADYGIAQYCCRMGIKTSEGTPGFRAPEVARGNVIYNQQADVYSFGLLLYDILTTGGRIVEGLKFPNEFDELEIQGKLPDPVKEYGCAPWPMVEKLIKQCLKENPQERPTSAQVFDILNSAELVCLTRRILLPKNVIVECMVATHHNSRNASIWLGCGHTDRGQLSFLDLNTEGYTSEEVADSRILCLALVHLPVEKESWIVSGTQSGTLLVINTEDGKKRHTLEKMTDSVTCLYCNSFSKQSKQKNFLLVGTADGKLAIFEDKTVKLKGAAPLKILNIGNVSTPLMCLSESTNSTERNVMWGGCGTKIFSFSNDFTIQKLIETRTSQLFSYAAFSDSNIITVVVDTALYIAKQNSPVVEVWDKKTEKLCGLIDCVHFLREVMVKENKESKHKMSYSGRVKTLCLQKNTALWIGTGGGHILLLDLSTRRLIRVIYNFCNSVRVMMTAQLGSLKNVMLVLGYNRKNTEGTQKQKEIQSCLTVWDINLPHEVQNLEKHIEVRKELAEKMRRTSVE
T1 sequence (Q9H0K1 whole entry): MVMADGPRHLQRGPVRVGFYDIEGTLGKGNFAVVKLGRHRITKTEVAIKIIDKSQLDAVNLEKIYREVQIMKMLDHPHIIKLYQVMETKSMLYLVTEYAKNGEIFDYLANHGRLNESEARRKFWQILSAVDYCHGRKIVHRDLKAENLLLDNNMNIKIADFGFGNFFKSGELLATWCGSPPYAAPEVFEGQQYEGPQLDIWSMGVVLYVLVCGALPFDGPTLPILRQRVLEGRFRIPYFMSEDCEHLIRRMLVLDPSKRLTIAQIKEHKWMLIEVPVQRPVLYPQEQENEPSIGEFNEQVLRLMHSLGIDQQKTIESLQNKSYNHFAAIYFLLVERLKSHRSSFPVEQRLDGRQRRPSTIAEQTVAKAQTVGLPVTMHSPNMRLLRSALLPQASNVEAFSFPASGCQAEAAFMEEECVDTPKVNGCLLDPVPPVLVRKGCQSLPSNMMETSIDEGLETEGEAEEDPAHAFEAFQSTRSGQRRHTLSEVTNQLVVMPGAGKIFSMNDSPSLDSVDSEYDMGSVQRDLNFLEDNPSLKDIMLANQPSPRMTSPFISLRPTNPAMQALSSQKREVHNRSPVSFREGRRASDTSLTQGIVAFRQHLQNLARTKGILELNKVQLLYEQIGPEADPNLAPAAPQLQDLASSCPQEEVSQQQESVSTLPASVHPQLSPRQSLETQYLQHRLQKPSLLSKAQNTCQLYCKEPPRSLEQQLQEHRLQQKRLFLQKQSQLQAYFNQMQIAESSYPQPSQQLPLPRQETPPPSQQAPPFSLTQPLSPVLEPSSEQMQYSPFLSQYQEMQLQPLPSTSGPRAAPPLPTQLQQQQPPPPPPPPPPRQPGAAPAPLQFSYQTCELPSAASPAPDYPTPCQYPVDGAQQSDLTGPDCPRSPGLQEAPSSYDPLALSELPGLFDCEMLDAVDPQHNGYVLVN

Row | SMILES | remaining activity at 5 µM [1] | remaining activity at 5 µM [2] | remaining activity at 5 µM [3] | remaining activity at 5 µM [4] | remaining activity at 5 µM [5] | remaining activity at 5 µM [6] | remaining activity at 5 µM [7] | remaining activity at 10 µM ([1]; 10 uM) | remaining activity at 10 µM ([2]; 10 uM) | remaining activity at 10 µM ([3]; 10 uM) | remaining activity at 10 µM ([4]; 10 uM) | remaining activity at 10 µM ([5]; 10 uM) | remaining activity at 10 µM ([6]; 10 uM) | remaining activity at 10 µM ([7]; 10 uM)
1 | O=C(Nc1cnn(-c2csc(C(=O)NC3COC3)c2)c1)Nc1ccccc1Cl [Compound 17, 4-(4-(3-(2-chlorophenyl)ureido)-1H-pyrazol-1-yl)-N-(oxetan-3-yl)thiophene-2-carboxamide] | 97% | 99.3% | 89.2% | 99.7% | 101% | 88.2% | 96.3% |  |  |  |  |  |  | 
2 | Cc1sc(C(=O)NC2COC2)cc1-n1cc(NC(=O)Nc2c(F)cccc2Cl)cn1 [Compound 27, 4-(4-(3-(2-chloro-6-fluorophenyl)ureido)-1H-pyrazol-1-yl)-5-methyl-N-(oxetan-3-yl)thiophene-2-carboxamide] |  |  |  |  |  |  |  | 89.8% | 87.6% | 103% | 97.8% | 99.2% | 101% | 80.1%
3 | O=C(Nc1cnn(-c2csc(C(=O)NC3COC3)c2)c1)Nc1c(F)cccc1Cl [Compound 25, 4-(4-(3-(2-chloro-6-fluorophenyl)ureido)-1H-pyrazol-1-yl)-N-(oxetan-3-yl)thiophene-2-carboxamide] | 95.8% | 81.8% | 96.7% | 100% | 99.6% | 91.3% | 102% |  |  |  |  |  |  | 
